According to publication PMC6407917, “Identification of GSK3186899/DDD853651 as a Preclinical Development Candidate for the Treatment of Visceral Leishmaniasis” (Journal of Medicinal Chemistry, 2018):

Columns and labels:
Assay in all cases: biochemical
Set-up in all cases: species or system HEK293/K-562/placenta mixed human extract; Kinobeads chemoproteomic competition binding, quantified by TMT LC-MS/MS, dose response up to 20 uM
MYLK = MYLK (Homo sapiens, UniProt Q15746)
PKN3 = PKN3 (Homo sapiens, UniProt Q6P5Z2)
MAPK8 = MAPK8 (Homo sapiens, UniProt P45983)
PRKAA1 = PRKAA1 (Homo sapiens, UniProt Q13131)
BUB1 = BUB1 (Homo sapiens, UniProt O43683)
MAP4K4 = MAP4K4 (Homo sapiens, UniProt O95819)
MAP4K4, sequence (O95819 whole entry): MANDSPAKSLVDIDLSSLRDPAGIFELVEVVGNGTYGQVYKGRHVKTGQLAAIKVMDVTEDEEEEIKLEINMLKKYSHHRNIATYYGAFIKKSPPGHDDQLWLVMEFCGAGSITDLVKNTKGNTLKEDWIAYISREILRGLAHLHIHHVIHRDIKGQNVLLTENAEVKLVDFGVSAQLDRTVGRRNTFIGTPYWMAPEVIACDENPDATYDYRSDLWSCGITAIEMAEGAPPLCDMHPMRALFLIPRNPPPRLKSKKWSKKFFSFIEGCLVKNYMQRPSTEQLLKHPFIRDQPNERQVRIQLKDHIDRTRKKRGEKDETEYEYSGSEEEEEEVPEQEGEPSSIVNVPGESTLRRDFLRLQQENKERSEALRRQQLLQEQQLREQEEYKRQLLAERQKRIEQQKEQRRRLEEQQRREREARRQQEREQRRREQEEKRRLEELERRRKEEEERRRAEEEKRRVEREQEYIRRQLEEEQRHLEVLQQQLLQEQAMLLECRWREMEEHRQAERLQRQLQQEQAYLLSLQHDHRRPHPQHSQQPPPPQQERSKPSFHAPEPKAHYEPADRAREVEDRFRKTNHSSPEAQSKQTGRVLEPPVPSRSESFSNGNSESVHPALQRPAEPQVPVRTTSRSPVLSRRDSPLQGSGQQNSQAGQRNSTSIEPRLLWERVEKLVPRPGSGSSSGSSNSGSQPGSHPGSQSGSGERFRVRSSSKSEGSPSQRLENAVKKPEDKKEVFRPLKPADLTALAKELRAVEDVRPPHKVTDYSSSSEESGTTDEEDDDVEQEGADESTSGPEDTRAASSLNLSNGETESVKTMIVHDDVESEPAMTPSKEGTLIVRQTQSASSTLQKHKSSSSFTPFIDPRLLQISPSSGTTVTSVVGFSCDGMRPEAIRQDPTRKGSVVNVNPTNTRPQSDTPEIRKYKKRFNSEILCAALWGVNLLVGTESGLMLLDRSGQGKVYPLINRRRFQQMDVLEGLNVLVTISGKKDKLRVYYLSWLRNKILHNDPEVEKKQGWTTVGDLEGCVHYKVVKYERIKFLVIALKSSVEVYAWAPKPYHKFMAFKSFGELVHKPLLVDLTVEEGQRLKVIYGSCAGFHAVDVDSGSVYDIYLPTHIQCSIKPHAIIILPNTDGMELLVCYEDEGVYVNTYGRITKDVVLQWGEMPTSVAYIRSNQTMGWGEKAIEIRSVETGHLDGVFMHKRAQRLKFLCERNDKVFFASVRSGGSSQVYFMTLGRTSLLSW

STK17A = STK17A (Homo sapiens, UniProt Q9UEE5)
EPHA1 = EPHA1 (Homo sapiens, UniProt P21709)
CDK9 = CDK9 (Homo sapiens, UniProt P50750)
CDK9, sequence (P50750 whole entry): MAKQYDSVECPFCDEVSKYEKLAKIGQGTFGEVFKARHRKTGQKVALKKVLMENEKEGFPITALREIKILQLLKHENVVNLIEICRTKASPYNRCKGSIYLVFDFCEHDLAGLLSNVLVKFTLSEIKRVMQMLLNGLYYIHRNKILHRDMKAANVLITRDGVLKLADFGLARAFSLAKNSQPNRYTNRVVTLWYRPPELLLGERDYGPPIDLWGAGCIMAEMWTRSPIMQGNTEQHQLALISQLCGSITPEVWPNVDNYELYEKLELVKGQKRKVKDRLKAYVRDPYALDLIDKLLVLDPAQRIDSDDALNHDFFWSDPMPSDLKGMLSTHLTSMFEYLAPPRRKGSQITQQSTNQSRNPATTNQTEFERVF

CAMKK2 = CAMKK2 (Homo sapiens, UniProt Q96RR4)
CAMKK2, sequence (Q96RR4 whole entry): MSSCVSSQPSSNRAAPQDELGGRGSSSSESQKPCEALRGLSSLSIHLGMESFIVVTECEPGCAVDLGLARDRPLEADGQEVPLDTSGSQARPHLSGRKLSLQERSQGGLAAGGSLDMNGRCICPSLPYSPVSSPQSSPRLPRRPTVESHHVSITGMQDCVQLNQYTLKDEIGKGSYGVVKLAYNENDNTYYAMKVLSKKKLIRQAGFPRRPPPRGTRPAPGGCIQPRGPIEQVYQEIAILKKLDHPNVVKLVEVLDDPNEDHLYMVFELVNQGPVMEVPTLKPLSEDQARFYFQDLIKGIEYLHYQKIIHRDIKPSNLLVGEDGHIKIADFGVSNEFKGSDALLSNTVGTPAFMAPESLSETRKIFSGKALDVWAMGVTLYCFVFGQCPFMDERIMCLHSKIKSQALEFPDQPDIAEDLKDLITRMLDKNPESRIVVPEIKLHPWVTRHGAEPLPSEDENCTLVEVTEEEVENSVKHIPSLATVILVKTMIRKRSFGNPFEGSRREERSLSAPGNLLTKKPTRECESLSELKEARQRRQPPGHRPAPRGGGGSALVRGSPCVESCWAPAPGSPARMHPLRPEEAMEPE

ULK3 = ULK3 (Homo sapiens, UniProt Q6PHR2)
PRKDC = PRKDC (Homo sapiens, UniProt P78527)
MARK1 = MARK1 (Homo sapiens, UniProt Q9P0L2)
MAP2K4 = MAP2K4 (Homo sapiens, UniProt P45985)
MAP4K3 = MAP4K3 (Homo sapiens, UniProt Q8IVH8)
MAP4K3, sequence (Q8IVH8 whole entry): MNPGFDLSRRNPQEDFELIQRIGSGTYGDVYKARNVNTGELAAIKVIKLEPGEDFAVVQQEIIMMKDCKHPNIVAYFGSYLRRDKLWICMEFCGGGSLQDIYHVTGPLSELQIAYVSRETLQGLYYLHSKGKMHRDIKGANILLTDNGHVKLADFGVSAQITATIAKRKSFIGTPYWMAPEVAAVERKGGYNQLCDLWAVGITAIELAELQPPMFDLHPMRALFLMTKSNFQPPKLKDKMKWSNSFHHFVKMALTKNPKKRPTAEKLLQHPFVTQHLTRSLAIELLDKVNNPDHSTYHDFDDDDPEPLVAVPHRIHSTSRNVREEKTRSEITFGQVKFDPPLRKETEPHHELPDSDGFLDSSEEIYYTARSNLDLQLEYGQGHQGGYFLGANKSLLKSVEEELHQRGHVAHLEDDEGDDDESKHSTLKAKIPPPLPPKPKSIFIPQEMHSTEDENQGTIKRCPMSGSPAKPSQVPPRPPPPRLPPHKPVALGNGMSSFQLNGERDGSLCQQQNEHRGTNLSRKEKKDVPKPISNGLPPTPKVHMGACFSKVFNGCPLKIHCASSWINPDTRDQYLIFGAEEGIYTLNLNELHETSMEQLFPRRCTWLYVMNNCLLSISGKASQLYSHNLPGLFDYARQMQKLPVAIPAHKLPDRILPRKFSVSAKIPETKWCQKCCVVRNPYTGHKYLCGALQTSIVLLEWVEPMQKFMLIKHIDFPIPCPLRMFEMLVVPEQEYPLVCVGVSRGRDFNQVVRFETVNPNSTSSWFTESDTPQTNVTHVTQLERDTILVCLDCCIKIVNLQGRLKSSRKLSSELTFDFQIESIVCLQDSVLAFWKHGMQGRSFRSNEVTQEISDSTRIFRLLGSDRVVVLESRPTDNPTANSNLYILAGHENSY

MAP4K5 = MAP4K5 (Homo sapiens, UniProt Q9Y4K4)
MAP4K5, sequence (Q9Y4K4 whole entry): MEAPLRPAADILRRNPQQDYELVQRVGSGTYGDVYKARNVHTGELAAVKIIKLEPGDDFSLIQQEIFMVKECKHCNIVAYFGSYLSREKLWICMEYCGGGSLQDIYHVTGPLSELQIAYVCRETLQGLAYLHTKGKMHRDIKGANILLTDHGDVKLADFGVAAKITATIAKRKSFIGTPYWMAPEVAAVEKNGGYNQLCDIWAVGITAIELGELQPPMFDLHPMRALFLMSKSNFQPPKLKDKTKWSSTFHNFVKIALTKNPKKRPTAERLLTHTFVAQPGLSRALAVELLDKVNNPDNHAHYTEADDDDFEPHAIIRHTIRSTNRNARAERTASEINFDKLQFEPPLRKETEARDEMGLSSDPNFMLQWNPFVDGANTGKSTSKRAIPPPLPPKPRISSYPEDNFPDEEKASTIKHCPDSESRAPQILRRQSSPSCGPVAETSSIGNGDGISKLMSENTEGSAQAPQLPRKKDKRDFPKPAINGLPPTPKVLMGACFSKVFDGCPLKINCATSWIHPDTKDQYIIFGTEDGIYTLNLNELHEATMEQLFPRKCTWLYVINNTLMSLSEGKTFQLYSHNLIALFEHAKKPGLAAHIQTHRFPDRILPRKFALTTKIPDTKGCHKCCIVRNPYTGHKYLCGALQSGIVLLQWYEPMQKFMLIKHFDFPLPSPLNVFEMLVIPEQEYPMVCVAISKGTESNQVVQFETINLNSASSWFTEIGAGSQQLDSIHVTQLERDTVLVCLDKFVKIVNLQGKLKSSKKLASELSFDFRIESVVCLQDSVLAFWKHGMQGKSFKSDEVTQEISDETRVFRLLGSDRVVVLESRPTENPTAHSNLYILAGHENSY

MAP3K9 = MAP3K9 (Homo sapiens, UniProt P80192)
PKN1 = PKN1 (Homo sapiens, UniProt Q16512)
LATS1 = LATS1 (Homo sapiens, UniProt O95835)
LATS1, sequence (O95835 whole entry): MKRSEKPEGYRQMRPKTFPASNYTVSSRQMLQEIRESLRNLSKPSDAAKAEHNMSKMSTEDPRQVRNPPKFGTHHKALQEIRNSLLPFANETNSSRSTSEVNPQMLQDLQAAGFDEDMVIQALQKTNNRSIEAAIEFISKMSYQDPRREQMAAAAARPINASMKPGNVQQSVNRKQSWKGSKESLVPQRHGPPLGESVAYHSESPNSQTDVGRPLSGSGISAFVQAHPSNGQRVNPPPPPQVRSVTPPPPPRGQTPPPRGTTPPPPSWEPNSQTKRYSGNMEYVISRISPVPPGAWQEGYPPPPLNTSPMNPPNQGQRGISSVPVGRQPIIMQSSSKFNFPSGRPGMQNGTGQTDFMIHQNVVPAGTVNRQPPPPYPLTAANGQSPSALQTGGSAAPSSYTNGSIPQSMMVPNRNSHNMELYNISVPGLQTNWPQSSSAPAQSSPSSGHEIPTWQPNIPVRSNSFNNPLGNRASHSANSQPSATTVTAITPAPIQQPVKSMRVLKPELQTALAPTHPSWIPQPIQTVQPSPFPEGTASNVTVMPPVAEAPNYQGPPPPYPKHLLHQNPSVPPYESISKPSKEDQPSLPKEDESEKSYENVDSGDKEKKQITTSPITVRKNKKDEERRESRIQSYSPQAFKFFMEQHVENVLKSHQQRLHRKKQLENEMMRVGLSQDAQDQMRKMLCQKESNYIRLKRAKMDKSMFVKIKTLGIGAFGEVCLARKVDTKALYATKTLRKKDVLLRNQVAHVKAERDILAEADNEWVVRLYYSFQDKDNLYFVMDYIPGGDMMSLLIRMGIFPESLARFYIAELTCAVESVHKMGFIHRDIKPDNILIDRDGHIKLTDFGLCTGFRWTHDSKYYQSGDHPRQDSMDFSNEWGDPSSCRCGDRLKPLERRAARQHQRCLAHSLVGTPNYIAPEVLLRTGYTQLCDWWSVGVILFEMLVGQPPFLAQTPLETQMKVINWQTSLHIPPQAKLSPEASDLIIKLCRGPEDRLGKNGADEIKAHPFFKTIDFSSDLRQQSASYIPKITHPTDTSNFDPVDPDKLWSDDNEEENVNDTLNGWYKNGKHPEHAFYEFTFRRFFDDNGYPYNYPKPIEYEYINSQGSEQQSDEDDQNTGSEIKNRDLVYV

PIP4K2B = PIP4K2B (Homo sapiens, UniProt P78356)
AURKA = AURKA (Homo sapiens, UniProt O14965)

Measured: IC50

COc1nc(N[C@H]2CC[C@H](NS(=O)(=O)CC(C)C)CC2)nc2[nH]nc(N3CCOC[C@H]3C)c12 [compound 39, N-(trans-4-((4-Methoxy-3-((R)-3-methylmorpholino)-1H-pyrazolo[3,4-d]pyrimidin-6-yl)amino)cyclohexyl)-2-methylpropane-1-sulfonamide]
≥ 20 µM: all assays above
